Experimental data from US20040162328A1, “Compounds of the family of 3-alkyl-(4,5-diphenyl-imidazol-1-yl) and their use as soothing agents” (priority 2001, published 2004).
Where two headings read alike, the source gives them in different places.

Tested on: interleukin-8 secreted by normal human epidermal keratinocytes (NHEKs)
Experiment: Inhibition of interleukin-8 secretion by NHEK cells after stimulation with PMA as irritant agent
Format: cell-based
Conditions: 160 nM PMA
From the text: Inhibition of the response of superficial epidermal cells to an irritant agent by assay of the interleukin-8 secreted by normal human epidermal keratinocytes (NHEKS) after stimulation with phorbol 12-myristate 13-acetate (PMA) as irritant agent.
This study uses the test developed by Wilmer [Wilmer, J. L. et al., J. invest. Dermatol., 102: 915-922 (1994)]. This test allows the evaluation of the antiirritant potential of various molecules, on a human keratinocyte (NHEK) cell line. In this test, an irritant situation is mimicked by exacerbating the production of IL-8 of the NHEKs by adding PMA to the culture medium, IL-8 being involved in initiating the keratinocyte irritation. The antiirritant effect of a molecule is then measured by means of its inhibitory action with respect to this exacerbated production.
Normal human epidermal keratinocytes (NHEKs) sold by the company Clonetics and distributed in France by the company TEBU are incubated in the presence of 160 nM of PMA for 24 hours at 37° C. In response to the PMA, the production of the chemotactic agent interleukin-8 (IL-8) is measured by enzymatic assay using an assay kit (Elisa D8050) sold by the company R&D. The absorbance values are measured using a microplate reader (MRX/Dynatech) according to the procedures supplied with the assay kit. To evaluate the antiirritant protective effect of the various compounds, the production of the chemotactic marker IL-8 by the human keratinocytes is measured in the presence of various concentrations of the test compound.
The results are expressed as a percentage of the control values after subtracting the background noise and as a percentage of inhibition of these values obtained in the presence of the compounds.

[1] = Study No. 2 (Comparative Tests), compound at 10 μM, same batch of NHEK cells, 24 hours, read-out: % inhibition of secretion of IL-8

c1ccc(-c2ncn(CCCN3CCOCC3)c2-c2ccccc2)cc1 [Example 1, 4-[3-(4,5-diphenylimidazol-1-yl)-propyl]morpholine]
inhibition at 1 µM (Study No. 1, compound at 1 μM, NHEK, 24 hours at 37° C., read-out: % inhibition of secretion of IL-8 (at 1 μM)): 86%
inhibition at 10 µM (Study No. 1, compound at 10 μM, NHEK, 24 hours at 37° C., read-out: % inhibition of secretion of IL-8 (at 10 μM)): 95%
inhibition at 10 µM [1]: 35%

COC(=O)CCCCn1cnc(-c2ccccc2)c1-c1ccccc1 [Example 2, methyl (4,5-diphenyl-imidazole)-1-ylbutyl-4-carboxylate]
inhibition at 10 µM [1]: 10%

O=C1c2ccccc2C(=O)N1CCCCn1cnc(-c2ccccc2)c1-c1ccccc1 [Example 3, 4-phthalimidebutyl-(4,5-diphenyl-imidazol)-1-yl]
inhibition at 10 µM [1]: 39%

O=C1c2ccccc2C(=O)N1CCCn1cnc(-c2ccccc2)c1-c1ccccc1 [Example 4, 3-phthalimidepropyl-(4,5-diphenyl-imidazol)-1-yl]
inhibition at 10 µM [1]: 37%

COC(=O)CCCn1cnc(-c2ccccc2)c1-c1ccccc1 [Example 5, methyl (4,5-diphenyl-imidazol)-1-ylpropyl-3-carboxylate]
inhibition at 10 µM [1]: 22%

c1ccc(-c2ncn(CCCN3CCCCC3)c2-c2ccccc2)cc1 [Example 6]
inhibition at 10 µM [1]: 41%

c1ccc(-c2ncn(CCN3CCCCC3)c2-c2ccccc2)cc1 [JP 44 029 199, reference compound]
inhibition at 10 µM [1]: < 10%
